This passage reports EC50 results from article PMC4104544 (Cell, 2014).

The EC50 is the concentration needed to bring the measured effect to its halfway point. Higher therefore signals a need for much substance.

For this experiment, the target named is OSBP (oxysterol-binding protein) (Homo sapiens, UniProt P22059). The experiment in a line: cell-based.
Sequence of OSBP (oxysterol-binding protein) (P22059 2-807): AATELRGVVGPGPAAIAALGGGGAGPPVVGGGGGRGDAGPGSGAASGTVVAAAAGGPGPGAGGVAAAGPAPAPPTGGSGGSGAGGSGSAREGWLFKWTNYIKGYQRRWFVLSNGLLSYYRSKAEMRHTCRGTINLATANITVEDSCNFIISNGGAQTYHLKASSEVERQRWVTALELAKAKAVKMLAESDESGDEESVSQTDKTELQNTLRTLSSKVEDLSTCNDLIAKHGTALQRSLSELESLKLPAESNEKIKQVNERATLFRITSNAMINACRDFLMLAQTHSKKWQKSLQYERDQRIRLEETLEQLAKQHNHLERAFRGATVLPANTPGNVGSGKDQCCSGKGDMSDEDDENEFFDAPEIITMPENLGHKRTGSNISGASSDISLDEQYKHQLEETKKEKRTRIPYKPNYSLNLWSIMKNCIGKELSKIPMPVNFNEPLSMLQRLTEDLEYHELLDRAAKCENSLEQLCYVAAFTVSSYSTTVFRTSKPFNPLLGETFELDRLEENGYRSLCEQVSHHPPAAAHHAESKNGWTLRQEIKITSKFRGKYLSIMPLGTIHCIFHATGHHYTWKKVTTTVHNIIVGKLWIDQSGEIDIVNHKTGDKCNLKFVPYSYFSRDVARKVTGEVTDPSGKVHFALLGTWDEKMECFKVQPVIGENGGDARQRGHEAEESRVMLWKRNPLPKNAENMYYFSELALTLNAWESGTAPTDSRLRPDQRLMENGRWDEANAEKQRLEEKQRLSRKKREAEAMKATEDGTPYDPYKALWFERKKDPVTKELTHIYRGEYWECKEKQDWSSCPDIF
Sequence of OSBP (oxysterol-binding protein) (O75344 whole entry partner): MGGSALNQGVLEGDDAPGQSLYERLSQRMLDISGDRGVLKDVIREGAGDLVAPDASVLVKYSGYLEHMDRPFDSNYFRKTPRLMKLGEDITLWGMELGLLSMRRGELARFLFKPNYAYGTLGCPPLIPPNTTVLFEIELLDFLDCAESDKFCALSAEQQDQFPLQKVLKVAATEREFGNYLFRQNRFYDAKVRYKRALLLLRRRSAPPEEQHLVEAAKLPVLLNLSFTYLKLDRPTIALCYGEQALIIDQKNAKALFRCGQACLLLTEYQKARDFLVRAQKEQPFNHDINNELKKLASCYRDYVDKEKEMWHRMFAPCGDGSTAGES

With `COc1ccc(C(=O)O[C@H]2[C@H](O[C@@H]3[C@@H](OC(C)=O)[C@H](O[C@H]4C[C@H]5[C@@H]6CC=C7C[C@@H](O)CC[C@]7(C)[C@H]6CC[C@]5(C)[C@@]4(O)[C@H](C)C(=O)CCC(C)C)OC[C@@H]3O)OC[C@@H](O)[C@@H]2O)cc1` [OSW-1], the EC50 stood at 60 nM.
